The source of these data is ChEMBL document CHEMBL1145713, “Cyclic peptides from higher plants. 34. Segetalins G and H, structures and estrogen-like activity of cyclic pentapeptides from Vaccaria segetalis” (1997).

Peptide text beside a SMILES is read from it.

The assay has as its system Rattus norvegicus. The experiment in a line: Estrogen-like activity in ovariectomized SD rat assessed as increase in uterus weight at 2.5 mg/kg, sc administered daily for 14 days. Conditions: route subcutaneous. The assay is classed as functional.

On to `CC(C)[C@@H]1NC(=O)[C@@H]2CCCN2C(=O)[C@H](C(C)C)NC(=O)CNC(=O)[C@H](C)NC(=O)[C@H](Cc2c[nH]c3ccccc23)NC1=O` [SEGETALIN A] (cyclo(AGVPVW)), for which the Activity was determined as 54.4 mg.
Take `CC(C)[C@@H]1NC(=O)CNC(=O)[C@H](C)NC(=O)[C@H](Cc2c[nH]c3ccccc23)NC(=O)[C@H](C)NC1=O` [SEGETALIN B] (cyclo(AGVAW)): the Activity was found to be 56.3 mg.
The figure for `CC(C)[C@@H]1NC(=O)CNC(=O)[C@H](C)NC(=O)[C@H](Cc2ccc(O)cc2)NC(=O)[C@H](CCCCN)NC1=O` [SEGETALIN G] (cyclo(AGVKY)) is 51.2 mg.
`N=C(N)NCCC[C@@H]1NC(=O)[C@H](Cc2ccc(O)cc2)NC(=O)CNC(=O)[C@H](CO)NC(=O)[C@H](Cc2ccccc2)NC1=O` [SEGETALIN H] (cyclo(FSGYR)): the Activity was 54.8 mg.
